Experimental data as given in US5945438A, “Triazole derivative and pharmaceutical comprising the same as an effective ingredient” (SS Pharmaceutical Co., Ltd., priority 1995, dated 1999).
≈ marks a conversion by molar mass, not a printed value. Like-named read-outs stand apart in the source and are kept apart here.

What was measured:
[1] = test system: C. albicans ATCC 44859; experiment: In vitro antifungal activity against Candida albicans; type: cell-based; details: C. albicans controlled to a yeast-type (no hyphal growth), Eagle's MEM medium with 10% serum, 2.0×10^4 cells/ml, 37° C.; for MIC: Candida albicans, read-out: Minimum inhibitory concentration
Description: In vitro antifungal activity against Candida albicans
Incubation was then conducted at 37° C. for 20 hours using a CO2 gas incubator.

[2] = test system: A. fumigatus IFM 40808; experiment: In vitro antifungal activity against Aspergillus fumigatus; type: cell-based; details: RPMI MEDIUM 1640, pH 7, 3.0×10^4 cells/ml, 35° C.; for MIC: Aspergillus fumigatus, read-out: Minimum inhibitory concentration
Description: In vitro antifungal activity against Aspergillus fumigatus
Incubation was then conducted at 35° C. for 24 hours.

[3] = IFM40808, 24 h, pH 7, growth of about 75% of hyphae inhibited
[4] = growth of about 75% of hyphae inhibited, 24 hours

Compound | MIC ([1]; ATCC44859, 20 h) | MIC [2, 3] | Minimum inhibitory concentration ([1]; 20 hours) | also measured
CS(=O)(=O)C(F)(F)C(O)(Cn1cncn1)c1ccc(F)cc1 (racemic) [Compound(1c-2), 3,3-difluoro-2-(4'-fluorophenyl)-3-methylsulfonyl-1-(1H-1,2,4-triazol-1-yl)propan-2-ol] | 0.25 µg/mL (≈ 0.746 µM) | > 64 µg/mL | – | –
CS(=O)(=O)C(F)(F)C(O)(Cn1cncn1)c1ccc(C(F)(F)F)cc1 (racemic) [Compound(1c-4), 3,3-difluoro-3-methylsulfonyl-1-(1H-1,2,4-triazol-1-yl)-2-[4'-(trifluoromethyl)phenyl]propan-2-ol] | 0.125 µg/mL (≈ 0.324 µM) | > 64 µg/mL | – | –
C[S+]([O-])C(F)(F)C(O)(Cn1cncn1)c1ccc(F)cc1F (single isomer, unassigned) [Compound(1b-1B), 3,3-difluoro-2-(2',4'-difluorophenyl)-3-methylsulfinyl-1-(1H-1,2,4-triazol-1-yl)propan-2-ol] | – | – | 0.5 µg/mL (≈ 1.48 µM) | Minimum inhibitory concentration [2, 4]: > 64 µg/mL
CS(=O)(=O)C(F)(F)C(O)(Cn1cncn1)c1ccc(F)cc1F (single isomer, unassigned; (+)) [(+)-Compound(1c-1), (+)-3,3-difluoro-2-(2',4'-difluorophenyl)-3-methylsulfonyl-1-(1H-1,2,4-triazol-1-yl)propan-2-ol] | – | – | > 1 µg/mL | Minimum inhibitory concentration [2, 4]: > 64 µg/mL
CS(=O)(=O)C(F)(F)C(O)(Cn1cncn1)c1ccc(Cl)cc1Cl (single isomer, unassigned; (+)) [(+)-Compound(1c-3), (+)-2-(2',4'-dichlorophenyl)-3,3-difluoro-3-methylsulfonyl-1-(1H-1,2,4-triazol-1-yl)propan-2-ol] | – | – | > 1 µg/mL | Minimum inhibitory concentration [2, 4]: > 64 µg/mL
CS(=O)(=O)C(F)(F)C(O)(Cn1cncn1)c1ccc(C(F)(F)F)cc1 (single isomer, unassigned; (+)) [(+)-Compound(1c-4), (+)-3,3-difluoro-3-methylsulfonyl-1-(1H-1,2,4-triazol-1-yl)-2-[4'-(trifluoromethyl)phenyl]propan-2-ol] | – | > 64 µg/mL | > 1 µg/mL | –
CS(=O)(=O)C(F)(F)C(O)(Cn1cncn1)c1ccc(F)cc1F (single isomer, unassigned; (-)) [(-)-Compound(1c-1), (-)-3,3-difluoro-2-(2',4'-difluorophenyl)-3-methylsulfonyl-1-(1H-1,2,4-triazol-1-yl)propan-2-ol] | – | – | 0.0313 µg/mL (≈ 0.0886 µM) | Minimum inhibitory concentration [2, 4]: 16 µg/mL (≈ 45.3 µM)
CS(=O)(=O)C(F)(F)C(O)(Cn1cncn1)c1ccc(F)cc1 (single isomer, unassigned; (-)) [(-)-Compound(1c-2), (-)-3,3-difluoro-2-(4'-fluorophenyl)-3-methylsulfonyl-1-(1H-1,2,4-triazol-1-yl)propan-2-ol] | – | – | 0.0625 µg/mL (≈ 0.186 µM) | Minimum inhibitory concentration [2, 4]: 64 µg/mL (≈ 191 µM)
CS(=O)(=O)C(F)(F)C(O)(Cn1cncn1)c1ccc(Cl)cc1Cl (single isomer, unassigned; (-)) [(-)-Compound(1c-3), (-)-2-(2',4'-dichlorophenyl)-3,3-difluoro-3-methylsulfonyl-1-(1H-1,2,4-triazol-1-yl)propan-2-ol] | – | 32 µg/mL (≈ 82.9 µM) | 0.0078 µg/mL (≈ 0.0202 µM) | –
CS(=O)(=O)C(F)(F)C(O)(Cn1cncn1)c1ccc(C(F)(F)F)cc1 (single isomer, unassigned; (-)) [(-)-Compound(1c-4), (-)-3,3-difluoro-3-methylsulfonyl-1-(1H-1,2,4-triazol-1-yl)-2-(4'-(trifluoromethyl)phenyl]propan-2-ol] | – | – | 0.0625 µg/mL (≈ 0.162 µM) | Minimum inhibitory concentration [2, 4]: > 64 µg/mL
CS(=O)(=O)C(F)(F)C(O)(Cn1cncn1)c1ccc(F)cc1F (stereo not drawn) [Compound (1c-1), 3,3-difluoro-2-(2',4'-difluorophenyl)-3-methylsulfonyl-1-(1H-1,2,4-triazol-1-yl)propan-2-ol] | 0.0625 µg/mL (≈ 0.177 µM) | 32 µg/mL (≈ 90.6 µM) | – | –
CSC(F)(F)C(O)(Cn1cncn1)c1ccc(F)cc1 (stereo not drawn) [Compound(1a-2), 3,3-difluoro-2-(4'-fluorophenyl)-3-methylthio-1-(1H-1,2,4-triazol-1-yl)propan-2-ol] | 0.0625 µg/mL (≈ 0.206 µM) | 16 µg/mL (≈ 52.8 µM) | – | –
CSC(F)(F)C(O)(Cn1cncn1)c1ccccc1 (stereo not drawn) [Compound(1a-5), 3,3-difluoro-3-methylthio-2-phenyl-1-(1H-1,2,4-triazol-1-yl)propan-2-ol] | 0.125 µg/mL (≈ 0.438 µM) | 16 µg/mL (≈ 56.1 µM) | – | –
CS(=O)(=O)C(F)(F)C(O)(Cn1cncn1)c1ccccc1 (stereo not drawn) [Compound(1c-5), 3,3-difluoro-3-methylsulfonyl-2-phenyl-1-(1H-1,2,4-triazol-1-yl)propan-2-ol] | 0.5 µg/mL (≈ 1.58 µM) | > 64 µg/mL | – | –
OC(Cn1cncn1)(Cn1cncn1)c1ccc(F)cc1F [Fluconazole, reference compound] | – | – | – | MIC ([1]; ATCC44859, 20 hours): 0.25 µg/mL (≈ 0.816 µM); MIC ([2]; IFM40808, growth of about 75% of hyphae inhibited, 24 hours): > 64 µg/mL

Second part, led by results:

MIC ([1]; ATCC44859, 20 h) | MIC [2, 3] | Compound | Minimum inhibitory concentration ([1]; 20 hours) | also measured
0.0078 µg/mL (≈ 0.0243 µM) | 4 µg/mL (≈ 12.4 µM) | CSC(F)(F)C(O)(Cn1cncn1)c1ccc(F)cc1F (racemic) [Compound(1a-1), 3,3-difluoro-2-(2',4'-difluorophenyl)-3-methylthio-1-(1H-1,2,4-triazol-1-yl)propan-2-ol] | – | –
0.0039 µg/mL (≈ 0.011 µM) | 2 µg/mL (≈ 5.65 µM) | CSC(F)(F)C(O)(Cn1cncn1)c1ccc(Cl)cc1Cl (racemic) [Compound(1a-3), 2-(2',4'-dichlorophenyl)-3,3-difluoro-3-methylthio-1-(1H-1,2,4-triazol-1-yl)propan-2-ol] | – | –
– | 64 µg/mL (≈ 190 µM) | C[S+]([O-])C(F)(F)C(O)(Cn1cncn1)c1ccc(F)cc1F (single isomer, unassigned) [Compound(1b-1A), 3,3-difluoro-2-(2',4'-difluorophenyl)-3-methylsulfinyl-1-(1H-1,2,4-triazol-1-yl)propan-2-ol] | 0.0625 µg/mL (≈ 0.185 µM) | –
– | > 64 µg/mL | CS(=O)(=O)C(F)(F)C(O)(Cn1cncn1)c1ccc(F)cc1 (single isomer, unassigned; (+)) [(+)-Compound(1c-2), (+)-3,3-difluoro-2-(4'-fluorophenyl)-3-methylsulfonyl-1-(1H-1,2,4-triazol-1-yl)propan-2-ol] | > 1 µg/mL | –
0.0156 µg/mL (≈ 0.0442 µM) | 16 µg/mL (≈ 45.3 µM) | CSC(F)(F)C(O)(Cn1cncn1)c1ccc(C(F)(F)F)cc1 (stereo not drawn) [Compound(1a-4), 3,3-difluoro-3-methylthio-1-(1H-1,2,4-triazol-1-yl)-2-[4'-(trifluoromethyl)phenyl]propan-2-ol] | – | –
0.0313 µg/mL (≈ 0.081 µM) | 32 µg/mL (≈ 82.9 µM) | CS(=O)(=O)C(F)(F)C(O)(Cn1cncn1)c1ccc(Cl)cc1Cl (stereo not drawn) [Compound(1c-3), 2-(2',4'-dichlorophenyl)-3,3-difluoro-3-methylsulfonyl-1-(1H-1,2,4-triazol-1-yl)propan-2-ol] | – | –
